For the first assay, the system named is Jily. In words: MTS proliferation assay, Jily. Format: cell-based. As to conditions: 72 h incubation, read-out: MTS proliferation assay IC 50 Jily. Here is the method: Cell lines are cultured in RPMI-1640 tissue culture medium containing either 5% or 10% fetal calf serum, 0.05 mM 2-mercaptoethanol, 2 mM glutamine and penicillin/streptomycin 50 μg/ml (complete medium) (Sigma, Buchs, Switzerland). General growth conditions are 37° C. and 7.5% CO2.
The assay is performed in 96 well tissue culture plates. The cells (range: 1.5*10^3-10^4) are seeded out in 80 μl complete medium 24 h prior to compound treatment. The test compounds are added in 20 μl complete medium containing max 5% DMSO. The final compound concentrations in the assays are 10 μM, 3 μM, 1 μM and 0.3 μM, respectively. The assay plates are incubated for 72 h at culture conditions. The MTS reagent is prepared according to the manufacturer's protocol (Promega G1111). 20 μl MTS reagent are added to each well, the assay plates are quickly spun and incubated for another 3 h at culture conditions. Subsequently, the plates are shortly shaked and absorption measured with a microplate-reader at 492 nm.
With `Cc1ccc(C(=O)Cn2c(-c3nonc3N)nc3ccccc32)cc1C` [Example 53], the IC50 lay in the range of 10 to 100 nM.
On to `Cc1ccc(C(=O)Cn2c(-c3nonc3NCCCO)nc3ccccc32)cc1C` [Example 52], for which the IC50 was 10 to 100 nM.

A further assay concerns adherent cells or suspension cells. Briefly: Hoechst 33342 nuclear staining (fraction of apoptotic nuclei). It counts as cell-based. As to conditions: H460, conc 0.01 μm. The arrangement: key: 0 relating to no activity; 1 relating to weak activity comprising less than 70% of the cells; score 2 relating to strong activity comprising more than 70% of the cells.
In the case of `Cc1ccc(C(=O)Cn2c(-c3nonc3N)nc3ccccc32)cc1C` [Example 53], the “Hoechst 33342 nuclear staining score” value is recorded as 0.
The same measure, in the same setting: with `Cc1ccc(C(=O)Cn2c(-c3nonc3NCCCO)nc3ccccc32)cc1C` [Example 52] the figure was 0.

The assay is the same for the next values; noted with them: H460, conc 0.1 μm.
Regarding `Cc1ccc(C(=O)Cn2c(-c3nonc3N)nc3ccccc32)cc1C` [Example 53], the “Hoechst 33342 nuclear staining score” value is 2 (score 2 relating to strong activity comprising more than 70% of the cells).
On to `Cc1ccc(C(=O)Cn2c(-c3nonc3NCCCO)nc3ccccc32)cc1C` [Example 52], for which the “Hoechst 33342 nuclear staining score” value was 1 (1 relating to weak activity comprising less than 70% of the cells).

Still in this assay, the particulars now being: H460, conc 1 μm.
Take `Cc1ccc(C(=O)Cn2c(-c3nonc3N)nc3ccccc32)cc1C` [Example 53]: the “Hoechst 33342 nuclear staining score” value was 2 (score 2 relating to strong activity comprising more than 70% of the cells).
Take `Cc1ccc(C(=O)Cn2c(-c3nonc3NCCCO)nc3ccccc32)cc1C` [Example 52]: the “Hoechst 33342 nuclear staining score” value is 2 (score 2 relating to strong activity comprising more than 70% of the cells).

Staying with this assay, now noted: HeLa, conc 0.01 μm.
As to `Cc1ccc(C(=O)Cn2c(-c3nonc3N)nc3ccccc32)cc1C` [Example 53], the “Hoechst 33342 nuclear staining score” value turned out to be 0.
For the compound `Cc1ccc(C(=O)Cn2c(-c3nonc3NCCCO)nc3ccccc32)cc1C` [Example 52], the “Hoechst 33342 nuclear staining score” value was 0.

Still in this assay, the particulars now being: HeLa, conc 0.1 μm.
In the case of `Cc1ccc(C(=O)Cn2c(-c3nonc3N)nc3ccccc32)cc1C` [Example 53], the “Hoechst 33342 nuclear staining score” value is recorded as 2 (score 2 relating to strong activity comprising more than 70% of the cells).
On the same count and under the same terms, to `Cc1ccc(C(=O)Cn2c(-c3nonc3NCCCO)nc3ccccc32)cc1C` [Example 52] belongs 2 (score 2 relating to strong activity comprising more than 70% of the cells).

Still in this assay, the particulars now being: HeLa, conc 1 μm.
For the compound `Cc1ccc(C(=O)Cn2c(-c3nonc3N)nc3ccccc32)cc1C` [Example 53], the “Hoechst 33342 nuclear staining score” value is reported as 2 (score 2 relating to strong activity comprising more than 70% of the cells).
In the case of `Cc1ccc(C(=O)Cn2c(-c3nonc3NCCCO)nc3ccccc32)cc1C` [Example 52], the “Hoechst 33342 nuclear staining score” value is 2 (score 2 relating to strong activity comprising more than 70% of the cells).

Staying with this assay, now noted: Jily, conc 0.01 μm.
On to `Cc1ccc(C(=O)Cn2c(-c3nonc3N)nc3ccccc32)cc1C` [Example 53], for which the “Hoechst 33342 nuclear staining score” value is 0.
Turning to `Cc1ccc(C(=O)Cn2c(-c3nonc3NCCCO)nc3ccccc32)cc1C` [Example 52], the “Hoechst 33342 nuclear staining score” value is 0.

Still in this assay, the particulars now being: Jily, conc 0.1 μm.
`Cc1ccc(C(=O)Cn2c(-c3nonc3N)nc3ccccc32)cc1C` [Example 53]: the “Hoechst 33342 nuclear staining score” value was 2 (score 2 relating to strong activity comprising more than 70% of the cells).
On to `Cc1ccc(C(=O)Cn2c(-c3nonc3NCCCO)nc3ccccc32)cc1C` [Example 52], for which the “Hoechst 33342 nuclear staining score” value is 2 (score 2 relating to strong activity comprising more than 70% of the cells).

Staying with this assay, now noted: Jily, conc 1 μm.
Take `Cc1ccc(C(=O)Cn2c(-c3nonc3N)nc3ccccc32)cc1C` [Example 53]: the “Hoechst 33342 nuclear staining score” value is given as 2 (score 2 relating to strong activity comprising more than 70% of the cells).
As to `Cc1ccc(C(=O)Cn2c(-c3nonc3NCCCO)nc3ccccc32)cc1C` [Example 52], the “Hoechst 33342 nuclear staining score” value is on record as 2 (score 2 relating to strong activity comprising more than 70% of the cells).

Staying with this assay, now noted: Jurkat, conc 0.01 μm.
Regarding `Cc1ccc(C(=O)Cn2c(-c3nonc3N)nc3ccccc32)cc1C` [Example 53], the “Hoechst 33342 nuclear staining score” value is 2 (score 2 relating to strong activity comprising more than 70% of the cells).
For the compound `Cc1ccc(C(=O)Cn2c(-c3nonc3NCCCO)nc3ccccc32)cc1C` [Example 52], the “Hoechst 33342 nuclear staining score” value was 0.

The same assay, now with this note: Jurkat, conc 0.1 μm.
As to `Cc1ccc(C(=O)Cn2c(-c3nonc3N)nc3ccccc32)cc1C` [Example 53], the “Hoechst 33342 nuclear staining score” value is given as 2 (score 2 relating to strong activity comprising more than 70% of the cells).
Still for that read-out and setting: to `Cc1ccc(C(=O)Cn2c(-c3nonc3NCCCO)nc3ccccc32)cc1C` [Example 52] belongs 2 (score 2 relating to strong activity comprising more than 70% of the cells).

The same assay, now with this note: Jurkat, conc 1 μm.
Turning to `Cc1ccc(C(=O)Cn2c(-c3nonc3N)nc3ccccc32)cc1C` [Example 53], the “Hoechst 33342 nuclear staining score” value was 2 (score 2 relating to strong activity comprising more than 70% of the cells).
In the case of `Cc1ccc(C(=O)Cn2c(-c3nonc3NCCCO)nc3ccccc32)cc1C` [Example 52], the “Hoechst 33342 nuclear staining score” value was 2 (score 2 relating to strong activity comprising more than 70% of the cells).

The same assay, now with this note: MRC5, conc 0.01 μm.
Take `Cc1ccc(C(=O)Cn2c(-c3nonc3N)nc3ccccc32)cc1C` [Example 53]: the “Hoechst 33342 nuclear staining score” value is given as 1 (1 relating to weak activity comprising less than 70% of the cells).
On the same count and under the same terms, to `Cc1ccc(C(=O)Cn2c(-c3nonc3NCCCO)nc3ccccc32)cc1C` [Example 52] belongs 0.

Staying with this assay, now noted: MRC5, conc 0.1 μm.
With `Cc1ccc(C(=O)Cn2c(-c3nonc3N)nc3ccccc32)cc1C` [Example 53], the “Hoechst 33342 nuclear staining score” value is recorded as 2 (score 2 relating to strong activity comprising more than 70% of the cells).
`Cc1ccc(C(=O)Cn2c(-c3nonc3NCCCO)nc3ccccc32)cc1C` [Example 52]: the “Hoechst 33342 nuclear staining score” value was 2 (score 2 relating to strong activity comprising more than 70% of the cells).

The same assay, now with this note: MRC5, conc 1 μm.
Take `Cc1ccc(C(=O)Cn2c(-c3nonc3N)nc3ccccc32)cc1C` [Example 53]: the “Hoechst 33342 nuclear staining score” value was 2 (score 2 relating to strong activity comprising more than 70% of the cells).
Regarding `Cc1ccc(C(=O)Cn2c(-c3nonc3NCCCO)nc3ccccc32)cc1C` [Example 52], the “Hoechst 33342 nuclear staining score” value is 2 (score 2 relating to strong activity comprising more than 70% of the cells).

The assay is the same for the next values; noted with them: PBLs, conc 0.01 μm.
On to `Cc1ccc(C(=O)Cn2c(-c3nonc3N)nc3ccccc32)cc1C` [Example 53], for which the “Hoechst 33342 nuclear staining score” value is on record as 0.
As for `Cc1ccc(C(=O)Cn2c(-c3nonc3NCCCO)nc3ccccc32)cc1C` [Example 52], the “Hoechst 33342 nuclear staining score” value turned out to be 0.

Staying with this assay, now noted: PBLs, conc 0.1 μm.
Turning to `Cc1ccc(C(=O)Cn2c(-c3nonc3N)nc3ccccc32)cc1C` [Example 53], the “Hoechst 33342 nuclear staining score” value is listed as 0.
Regarding `Cc1ccc(C(=O)Cn2c(-c3nonc3NCCCO)nc3ccccc32)cc1C` [Example 52], the “Hoechst 33342 nuclear staining score” value came out at 0.

Staying with this assay, now noted: PBLs, conc 1 μm.
With `Cc1ccc(C(=O)Cn2c(-c3nonc3N)nc3ccccc32)cc1C` [Example 53], the “Hoechst 33342 nuclear staining score” value came out at 0.
`Cc1ccc(C(=O)Cn2c(-c3nonc3NCCCO)nc3ccccc32)cc1C` [Example 52]: the “Hoechst 33342 nuclear staining score” value turned out to be 0.

The subject of the next assay is HeLa. In words: MTS proliferation assay, HeLa. Format: cell-based, human. As to conditions: 72 h incubation, read-out: MTS proliferation assay IC 50 HeLa. An outline of the steps:
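A 72 h exposure to compound (final 0.3–10 μM, four levels) was followed by 3 h MTS incubation and an A492 read.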
Take `Cc1ccc(C(=O)Cn2c(-c3nonc3N)nc3ccccc32)cc1C` [Example 53]: the IC50 fell in the range of 10 to 100 nM.
As for `Cc1ccc(C(=O)Cn2c(-c3nonc3NCCCO)nc3ccccc32)cc1C` [Example 52], the IC50 is 10 to 100 nM.

Source of the values: patent publication USRE42890E1, “Furazanobenzimidazoles” (Basilea Pharmaceutica AG, priority 2003, dated 2011).
